According to patent publication US6689803B2, “Compositions and methods for treating surgical adhesions” (Angiotech Pharmaceuticals, Inc., priority 1996, dated 2004):
Where two headings read alike, the source gives them in different places.

Key:
NF-κB = NF-κB activity (cell-based) reporter assay in NIH-3T3; set-up: species or system murine; conditions: 6-hour and 24-hour treatments
Experimental: IL-1 and TNF were both identified as being proinflammatory cytokines that activate the transcription of genes driven by a transcription factor named NF-κB also involved in inflammatory processes. The inflammatory effect of IL-1 and TNF can therefore be indirectly assessed by means of a reporter gene assay (NF-κB) responding to IL-1 and TNF stimulation.
On day one, 5×10^4 NIH-3T3 (murine fibroblast), stably transfected with a NF-κB reporter construct (Luciferase, Promega Corp.), were plated per well (24-well plate). Once confluent (on day 3-4), cells were starved by replacing the complete medium with 1 ml of serum-free medium. Following a 24-hour starvation, cells were treated with various concentrations of anti-microtubule agents 6 hours prior to the addition of IL-1 (20 ng/ml) and TNF (20 ng/ml). Cells were exposed to IL-1 and TNF for 1 hour and 16 hours and NF-κB activity measured 24 hours later. On day five, the medium was discarded and the cells were rinsed once with PBS. Cells were then extracted for 15 minutes with 250 μl of lysis buffer (Promega Corp., Wisconsin). NF-κB transcriptional activity was assessed by adding 25 μl of luciferase substrate to a tube containing 2.5 μl of cell extract. The tube was immediately inserted in a luminometer (Turner Designs) and light emission measured for 10 seconds. The luciferase data were then normalized for protein concentration.

synoviocytes = experiment: Proliferation assay (MTT); type: cell-based; conditions: 24-hour exposure
Experimental: On day one, 5-10×10^4 synoviocytes were plated per well (96-well plate). Column #1 was kept free of cells (blank). On day 2, the plate was flicked to discard the medium and 200 μl of medium containing various concentrations of drug was added. […] There was no drug added to columns #1 and #2 (blank and untreated control, respectively). The medium containing the drug was discarded and 200 μl of fresh complete medium was added. The cells were then left to grow for an additional 3 to 4 days. On day five, 20 μl of dimethylthiazol diphenyltetrazolium bromide salt (MTT) (5 mg/ml PBS) was added and allowed to incubate for 4 hours at 37° C. The medium was decanted and 200 μl of DMSO was added.
The data were expressed as the % of survival which was obtained by dividing the number of cells remaining after treatment by the number of cells in the untreated control column #2 (the number of cells was obtained from a standard done prior to the assay).

aggrecan mRNA = experiment: Expression of proteoglycan (aggrecan) in chondrocytes; type: cell-based, calf; conditions: all concentrations evaluated (10^−7 M to 10^−4 M)
Experimental: Primary chondrocyte cultures were freshly isolated from calf cartilage. The cells were plated at 2.5×10^6 per ml in 100×20 mm culture dishes and incubated in Ham's F12 medium containing 5% FBS overnight at 37° C. The cells were starved in serum-free medium overnight and then treated with anti-microtubule agents at various concentrations (10^−7 M, 10^−6 M, 10^−5 M and 10^−4 M) for 6 hours. […] Total RNA was isolated by the acidified guanidine isothiocyanate method and subjected to electrophoresis on a denatured gel. […] The exposed films were scanned and quantitatively analyzed with ImageQuant.

[1] = test system: chick chorioallantoic membrane (CAM) vasculature; conditions: PCL paste (3 mg)
collagenase (MMP-1) mRNA = experiment: IL-1 induced collagenase mRNA expression in chondrocytes (Northern blot); type: cell-based, calf; conditions: pre-incubation 6 hours, IL-1 20 ng/ml 18 hours
Experimental: Total RNA was isolated, and the MMP-1 mRNA levels were determined by Northern blot analysis. The blots were subsequently stripped and reprobed with ^32P-radiolabeled rat GAPDH cDNA, which was used as a housekeeping gene. The results shown are representative of four independent experiments. Quantitation of collagenase-1 and stromelysin-expression mRNA levels. The MMP-1 and MMP-3 expression levels were normalized with GAPDH.
Primary chondrocyte cultures were freshly isolated from calf cartilage. The cells were plated at 2.5×10^6 per ml in 100×20 mm culture dishes and incubated in Ham's F12 medium containing 5% FBS overnight at 37° C. […] IL-1 (20 ng/ml) was then added to each plate and the plates incubated for an additional 18 hours. Total RNA was isolated by the acidified guanidine isothiocyanate method and subjected to electrophoresis on a denatured gel. Denatured RNA samples (15 μg) were analyzed by gel electrophoresis in a 1% denatured gel, transferred to a nylon membrane and hydridized with the ^32P-labeled collagenase cDNA probe. ^32P-labeled glyceraldehyde phosphate […] (GAPDH) cDNA as an internal standard to ensure roughly equal loading. The exposed films were scanned and quantitatively analyzed with ImageQuant.

LNCaP cells = experiment: LNCaP cell growth (crystal violet); type: cell-based, human; conditions: inferred from toxicity at 0.001 nM
Experimental: LNCaP cells were seeded at concentrations of 2×10^3 and 1×10^3 cells/well respectively in 96 well plates. […] After incubation, the cells were fixed with 1% glutaraldehyde solution, and stained for 5 minutes with 0.5% crystal violet. The dye was successively eluted with 100 μl of buffer solution and the absorbance was read on a Titertek Multiskan microplate reader using a wavelength of 492 nm Absorbance. Cell growth was expressed as a percentage relative to control wells in the absence of the compound (set at 100%).

[2] = test system: restenosis / intimal hyperplasia; experiment: Rat carotid artery balloon injury model of restenosis, perivascular treatment; type: in vivo; conditions: 10% camptothecin-loaded EVA film, 14 days, two animals
Experimental: WISTAR rats weighing 250 to 300 g were anesthetized by the intramuscular injection of Innovar (0.33 ml/kg). Once sedated they were then placed under Halothane anesthesia After general anesthesia was established, fur over the neck region was shaved, the skin clamped and swabbed with betadine. A vertical incision was made over the left carotid artery and the external carotid artery exposed. Two ligatures were placed around the external carotid artery and a transverse arteriotomy was made. […] The endothelium was denuded by passing the inflated balloon up and down the carotid artery three times. The catheter was then removed and the ligature tied off on the left external carotid artery. […] The wound was then closed.

Structure (SMILES): Nc1ncnc2c1ccn2[C@@H]1O[C@H](CO)[C@@H](O)[C@H]1O [tubercidin, 7-deazaadenosine]
- inhibitory effect on IL-1- and TNF-induced NF-κB activity (NF-κB): around 10 μM
- IC50 (synoviocytes): ~45 nM
- expression of aggrecan (aggrecan mRNA): did not affect the expression of aggrecan
- Inhibition/n ([1]; 1%): ⅓
- Inhibition/n ([1]; 5%): ⅔
- prevented IL-1-induced collagenase expression at concentrations as low as (collagenase (MMP-1) mRNA): 100 nM

Structure (SMILES): CC[C@@]1(O)C(=O)OCc2c1cc1n(c2=O)Cc2cc3ccccc3nc2-1 [camptothecin]
- EC50 (LNCaP cells): femtomolar concentration range
- intimal hyperplasia [2]: completely inhibited intimal hyperplasia
- Inhibition/n ([1]; 0.25%): ¾
- Inhibition/n ([1]; 1%): ⅔
- Inhibition/n ([1]; 5%): ⅘
